One assay deals with T1, ERRα (Homo sapiens, UniProt P11474).
T1 sequence (P11474 193-421 limits assumed): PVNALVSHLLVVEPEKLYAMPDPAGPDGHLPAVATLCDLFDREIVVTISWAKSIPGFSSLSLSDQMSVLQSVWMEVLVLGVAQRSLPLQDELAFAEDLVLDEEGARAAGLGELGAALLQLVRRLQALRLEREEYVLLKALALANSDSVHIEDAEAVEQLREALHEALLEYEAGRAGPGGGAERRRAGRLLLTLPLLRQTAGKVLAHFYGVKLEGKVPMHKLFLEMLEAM
The experiment in a line: ThermoFluor thermal shift assay, ERRα. It counts as binding. As to conditions: 100 μM test compound, 0.1 mg/mL protein, 25 mM HEPES pH 8.0, 25 μM ANS, 2% DMSO, Tm free protein 54.4 °C. (In general: Differential scanning fluorimetry follows unfolding on heating by fluorescence.)

The target of a further assay is T2, ERRβ (Homo sapiens, UniProt O95718).
T2 sequence (O95718 208-432 limits assumed): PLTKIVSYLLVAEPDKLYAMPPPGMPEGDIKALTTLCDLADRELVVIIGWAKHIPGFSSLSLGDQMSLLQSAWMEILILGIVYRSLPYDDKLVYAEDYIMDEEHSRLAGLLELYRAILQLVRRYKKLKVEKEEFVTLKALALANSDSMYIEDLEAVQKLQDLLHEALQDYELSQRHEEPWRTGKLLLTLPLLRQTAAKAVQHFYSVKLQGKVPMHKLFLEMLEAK
In words: ThermoFluor thermal shift assay, ERRβ. It counts as binding.

For another assay, the target named is T3, ERα (Homo sapiens, UniProt P03372).
T3 sequence (P03372 1-595): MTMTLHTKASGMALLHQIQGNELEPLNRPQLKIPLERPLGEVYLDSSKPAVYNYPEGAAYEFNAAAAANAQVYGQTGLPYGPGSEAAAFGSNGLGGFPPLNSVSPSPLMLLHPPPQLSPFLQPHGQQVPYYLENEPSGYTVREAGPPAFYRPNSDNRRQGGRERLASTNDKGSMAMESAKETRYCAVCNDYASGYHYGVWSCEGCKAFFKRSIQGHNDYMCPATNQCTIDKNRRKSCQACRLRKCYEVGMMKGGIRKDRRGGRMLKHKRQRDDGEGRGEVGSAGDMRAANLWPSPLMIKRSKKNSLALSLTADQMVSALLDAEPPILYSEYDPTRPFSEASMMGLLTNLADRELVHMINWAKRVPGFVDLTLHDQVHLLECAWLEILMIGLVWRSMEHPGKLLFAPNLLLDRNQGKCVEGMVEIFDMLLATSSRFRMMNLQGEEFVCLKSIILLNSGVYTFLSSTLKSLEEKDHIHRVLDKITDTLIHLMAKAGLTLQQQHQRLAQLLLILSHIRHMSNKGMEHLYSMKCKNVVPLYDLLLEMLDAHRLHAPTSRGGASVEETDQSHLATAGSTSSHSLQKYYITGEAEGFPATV
In words: ThermoFluor thermal shift assay, ERα. It counts as binding.

Another assay has as its target ERβ (Homo sapiens, UniProt Q92731). In words: ThermoFluor thermal shift assay, ERβ. It counts as binding. Particulars: 100 μM test compound; 0.1 mg/mL protein, 25 mM HEPES pH 8.0; Tm free protein 41.1 °C; read-out: ΔTm, thermal stabilization of ERβ.
The next assay has as its target T4, ERRγ-SRC2 complex (Homo sapiens, UniProt P62508).
T4 construct: made in house; host or cells: E. coli BL21(DE3) (ERRγ LBD)
T4 sequence (P62508 229-458): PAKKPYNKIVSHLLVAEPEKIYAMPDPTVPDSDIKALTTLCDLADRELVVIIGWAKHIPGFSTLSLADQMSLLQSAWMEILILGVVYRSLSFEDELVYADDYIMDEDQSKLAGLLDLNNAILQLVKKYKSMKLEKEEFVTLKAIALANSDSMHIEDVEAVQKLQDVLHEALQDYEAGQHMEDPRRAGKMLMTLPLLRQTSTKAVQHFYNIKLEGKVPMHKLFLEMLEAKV
In words: TR-FRET co-activator recruitment assay. It counts as biochemical. As to the method: For FRET measurements, the reaction was buffered in 25 mM Tris pH 8, 2.5 mM Hepes, 20 mM KCl, 1 mM DTT, and 0.05 mg/mL delipidated BSA.
Time-resolved Fluorescence resonance energy transfer (FRET) experiments were performed to examine the functional response of ERRγ ligands.
For FRET measurements, the reaction was buffered in 25 mM Tris pH 8, 2.5 mM Hepes, 20 mM KCl, 1 mM DTT, and 0.05 mg/mL BSA (-lipids). […] Reactions were allowed to reach equilibrium at 25° C. for 4-18 hours before collecting data on the Analyst from LJL Biosystems (Molecular Devices Sunnyvale, Calif.). […] Dose response curves were fitted using a hyperbolic equation and the data reported is the average of three independent experiments.
For orientation: TR-FRET usually uses a lanthanide donor and a delayed reading to cut background.

The target of another assay is T5, ERRγ (Homo sapiens, UniProt P62508).
T5 construct: 6His; made in house; host or cells: E. coli BL21(DE3)
T5 sequence (P62508 229-458): T4 sequence (P62508 229-458)
In words: Isothermal titration calorimetry. It counts as binding. On the procedure: The heat of interaction of the ligands with ERRγ molecules was measured by using the Omega titration calorimeter from Microcal Inc. In a typical titration, 1.4 mL of a 20 μM protein solution is titrated with a ligand solution of ˜0.4 mM concentration using a 100 μL syringe by ˜20 injections of 5-6 μL each. This syringe is also used to mix the reactants completely in the sample cell by rotating it at 400 rpm. For each injection, the area under the resulting peak is proportional to the heat of interaction, Q. Once this heat is corrected for the titrant dilution and normalized by the titrant solution concentration it becomes equal to the binding enthalpy, ΔHb, under nonsaturating conditions. The precision of the heat of each injection is about 0.5 μcal. One method of determining ΔHb is to average several intermediate peaks from the different sites. In addition to the binding enthalpies, one can obtain binding affinities, and overall stoichiometries of the complexes. The experimental calorimetric binding isotherm is the dependence of the total heat, Qr, (or dQrldX T) on the total concentration of ligand added, Xr. The above three parameters for each type of site are determined iteratively using the Marquardt algorithms as described previously.
On the technique in general: Isothermal titration calorimetry measures the heat released or taken up as one component is titrated into another.

Another assay relates to pBIND-Gal4-ERRγ. The experiment in a line: Cell based reporter (trans-activation) assay in HEK293E cells. As to conditions: luciferase reporter, Gal4-ERRγ and pACT-SRC2, 24 hours of compound treatment.
The target in assay [1] is T6, ligand binding domain of ERRγ (Homo sapiens, UniProt P62508).
T6 construct: 6His; made in house; host or cells: E. coli BL21(DE3)
T6 sequence (P62508 229-458): T4 sequence (P62508 229-458)
The experiment in a line: Thermal denaturation monitored by CD spectroscopy. As to conditions: data not shown. The source says:
Ligand binding energy adds directly to the ground state energy of a macromolecule and results in increased thermal stability. The degree of stabilization is proportional to the binding affinity of the ligand for the macromolecule.

Entries after “also recorded” stand apart in the source; their conditions may differ.

Chain of ERβ (Q92731 whole entry, species assumed): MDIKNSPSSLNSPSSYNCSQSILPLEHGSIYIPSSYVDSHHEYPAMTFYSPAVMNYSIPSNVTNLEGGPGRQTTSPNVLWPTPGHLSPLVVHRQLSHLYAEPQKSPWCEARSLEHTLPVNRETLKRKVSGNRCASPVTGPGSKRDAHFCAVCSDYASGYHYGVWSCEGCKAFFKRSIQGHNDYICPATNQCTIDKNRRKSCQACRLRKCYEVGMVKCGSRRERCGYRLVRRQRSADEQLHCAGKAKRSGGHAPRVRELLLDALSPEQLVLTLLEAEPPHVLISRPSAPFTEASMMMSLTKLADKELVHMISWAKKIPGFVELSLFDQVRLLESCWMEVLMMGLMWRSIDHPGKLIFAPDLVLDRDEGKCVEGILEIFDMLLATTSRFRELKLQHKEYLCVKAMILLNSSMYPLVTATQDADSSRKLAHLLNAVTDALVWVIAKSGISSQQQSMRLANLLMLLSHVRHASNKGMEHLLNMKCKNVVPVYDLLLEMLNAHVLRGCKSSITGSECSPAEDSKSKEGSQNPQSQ
Experimental for pBIND-Gal4-ERRγ: A cell based reporter assay was used to determine the functional response of the ERRγ hits. Transfections were performed in HEK293E cells that were maintained in DMEM supplemented in glutamine and 10% FBS. Co-transfections of 4 μg of a luciferase reporter plasmid and 4 μg of each pBIND-Gal4-ERRγ and pACT-SRC2 plasmids per T-75 flask were done using Lipofectamine as per manufacturers instructions. Twenty-four hours post-transfection, the cells were seeded in 96-well plates at density of 50,000 cells per well in assay media (DMEM phenol free, 5% charcoal stripped FBS). […] After 24 hours of compound treatment, cells were lysed and treated with the Promega Dual-Glo system. Firefly Luciferase activity was read using a luminescence plate reader, and data were normalized against Renilla luciferase activity. Data were fitted using subroutines available from GraphPad.

As to `CC(C)(c1ccc(O)cc1)c1ccc(O)cc1` [BPA, bisphenol A], the ΔTm at 100 µM at ERRα (read-out: ΔTm, thermal stabilization of ERRα) was 0 °C; at ERRβ (100 μM test compound, 0.1 mg/mL protein, 25 mM HEPES pH 8.0, Tm free protein 47.5 °C, read-out: ΔTm, thermal stabilization of ERRβ), -0.1 °C; at ERα (100 μM test compound, 0.1 mg/mL protein, 25 mM HEPES pH 8.0, Tm free protein 39.1 °C, read-out: ΔTm, thermal stabilization of ERα), 4.4 °C; at ERβ, 7.4 °C. Besides, the “Enhancement in the affinity of the receptor for co-activator peptide fragments, in words” value on ERRγ-SRC2 complex is reported as “not able to demonstrate”. In addition, the “Displacement of co-activator peptide from ERRγ (antagonism), in words” value on ERRγ-SRC2 complex (6 nM ERRγ LBD, 6 nM GST-SRC-2 peptide) is on record as “ineffective; also recorded: neither ligand displaced co-activator peptide”. On ERRγ (20 μM protein titrated with ~0.4 mM ligand, read-out: Binding affinity by isothermal titration calorimetry), the Kd is 70 nM. Moreover, the “Binding enthalpy ΔHb” value at ERRγ (isothermal titration calorimetry) was around -21 kcal/mol. For the same compound, in the assay with pBIND-Gal4-ERRγ, the “Change in transcriptional activity in trans-activation cellular assay, in words” value was “not able to demonstrate”.

For 4-hydroxytamoxifen [4OHT], the “ΔTm, thermal stabilization of ERRα” value on ERRα was −0.1 °C. Moreover, the “ΔTm, thermal stabilization of ERRβ” value on ERRβ (100 μM test compound, 0.1 mg/mL protein, 25 mM HEPES pH 8.0, Tm free protein 47.5 °C) amounted to 2.15 °C. Besides, the Kd on ERRβ (calculated at reference temperature 25 °C from ΔTm of Table II, ΔHu 155 kcal/mol, read-out: Estimated dissociation constant, ERRβ) was 2640 nM. Also, the ΔTm, thermal stabilization of ERα on ERα (pH 8) is 17.1 °C. Besides, in assay [1], the “Thermal stabilization of ERRγ by loss of α-helicity (CD), in words” value is listed as “positive thermal stabilization”.

The ΔTm is the change in melting temperature against a reference sample.
